Data set [1] addresses T1, 20S proteasome in HCT116 cell lysates, CT-L activity (Homo sapiens, UniProt P28074).
T1 sequence (P28074 60-263): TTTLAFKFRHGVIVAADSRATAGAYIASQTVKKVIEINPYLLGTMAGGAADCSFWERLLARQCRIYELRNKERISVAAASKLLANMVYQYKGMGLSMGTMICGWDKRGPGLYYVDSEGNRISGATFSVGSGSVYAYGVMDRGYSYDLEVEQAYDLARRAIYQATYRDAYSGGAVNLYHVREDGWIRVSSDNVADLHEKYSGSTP
T1 sequence (P20618 29-241 partner): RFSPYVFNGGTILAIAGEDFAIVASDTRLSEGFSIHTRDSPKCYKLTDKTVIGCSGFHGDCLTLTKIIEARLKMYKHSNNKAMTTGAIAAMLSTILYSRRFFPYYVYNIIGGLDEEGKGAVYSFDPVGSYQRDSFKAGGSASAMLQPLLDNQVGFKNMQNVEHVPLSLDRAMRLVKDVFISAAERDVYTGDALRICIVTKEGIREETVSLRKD
The data set can be described thus: Proteasome inhibition assay in cell lysates, HCT116, CT-L. The settings on record: for percentage of proteasome inhibition, CT-L, cell lysates HCT116: at 100 µM; for percentage of proteasome inhibition, CT-L, cell lysates HCT116 / inhibition at 100 µM: Table 2 legend: bortezomib 10 µM; for inhibition at 100 µM: read-out: percentage of proteasome inhibition, CT-L, cell lysates HCT116, at 100 µM; for inhibition at 10 µM: read-out: percentage of proteasome inhibition, CT-L, cell lysates HCT-116, at 10 µM.
Protocol: Cells were obtained from several cultured cell lines: Jurkat, K562, HT-29, and HCT116. Pellets with 20 × 10^6 cells were prepared and washed with cold sterile phosphate buffered saline (PBS), 1×, pH 7.4 (Gibco, Thermo Fisher Scientific, Paisley, UK). […] Cells were resuspended in buffer containing 50 mM TRIS-HCl pH 7.4 (Nzytech, Lisboa, Portugal), 5 mM MgCl2 (≥98% purity, Merck, Hamburg, Germany), 1 mM DTT (Merck, Hamburg, Germany), 2 mM ATP (≥98% purity, Enzo Life Sciences Inc., Farmingdale, NY, USA), and 250 mM saccharose (Merck, Hamburg, Germany). Glass beads (Merck, Hamburg, Germany) equivalent to the volume of the cell suspension were added, and the mixture was vortexed for 2 min at 4 °C. Beads and cell debris were removed using 5 min centrifugation at 1000× g and 4 °C, followed by 20 min of centrifugation at 10,000× g at 4 °C. Cell lysates containing proteasomes were resuspended in “activity buffer” [50 mM TRIS-HCl (pH 7.4), 5 mM MgCl2, 1 mM DTT, 2 mM ATP (≥98% purity, Enzo Life Sciences Inc., Farmingdale, NY, USA), and 500 µM EDTA (≥98% purity, Merck, Hamburg, Germany)]. Protein concentration was determined using the Pierce™ BCA protocol (Thermo Fisher Scientific, Rockford, IL, USA). […] DMSO was added in an equal volume as used for the untreated compounds as a way to assess/control its influence in the assay. Untreated cells were used as control. In each well of a 96-well plate, 25 µL of lysate were seeded in duplicate with 25 µL of the compound to test; in the control, 25 µL of activity buffer were added to the 25 µL of lysate. A blank (50 µL of activity buffer) was added to the wells in quadruplicate. Cell lysates, pre-treated or not with different concentrations of the test compounds, were incubated for 30 min at 37 °C. […] Stock solutions (10 mM) of each substrate were prepared in DMSO, diluted in activity buffer, and 50 µL were added to all wells (final concentration of each substrate = 100 µM), followed by an incubation at 37 °C for 60 min. Samples fluorescence was measured at an excitation wavelength of 360 nm and emission of 465 nm; the fluorescence measures were performed using the GloMax-Multi + Detection System (Promega Corp., Madison, WI, USA). Activity was evaluated in fluorescence units, after being converted to percentage of proteasome inhibition and, whenever possible, expressed as IC50 by plotting the inhibition data of each compound at different concentrations against the log of the concentration of the inhibitor, using the GraphPad Prism software version 7. At least eight different concentrations of the test compounds were used.

The target in data set [2] is T2, isolated human 20S proteasome, CT-L activity (Homo sapiens, UniProt P20618+P28074).
T2 construct: human purified erythrocyte-derived 20S proteasome; purchased Enzo Life Sciences, Inc; host or cells: human erythrocytes (natural source)
As to the kind of experiment: Proteasome inhibition assay in isolated human 20S proteasomes (Proteasome-Glo), CT-L activity. The class given is biochemical. The settings on record: for inhibition at 10 µM: read-out: percentage of proteasome inhibition, CT-L, isolated 20S proteasome; for percentage of proteasome inhibition, CT-L, isolated human 20S proteasome: at 100 µM, Table 1 legend: bortezomib positive control 10 µM. The source says: In this assay, the peptide substrates are bound to aminoluciferin (Suc-LLVY-AML for CT-L activity, Z-nLPnLD-AML for C-L, and Z-LRR-AML for T-L), leading the cleavage of these substrates by the proteasome to the release of free aminoluciferin, which is the substrate of the buffer-contained luciferase.
To evaluate human purified erythrocyte-derived 20S proteasome inhibitory activity of the chosen compounds, the Proteasome-Glo™ 3-substrate system (Promega Corporation, Madison, WI, USA) was employed. The Proteasome-Glo™ reagents of the three proteolytic activities were prepared according to the manufacturer’s instructions, aliquoted, and stored at either −20 °C or 4 °C, avoiding freezing–thaw cycles. […] The purified 20S proteasome (Enzo Life Sciences, Inc., Farmingdale, NY, USA) was diluted in HEPES buffer 10 mM, pH 7.4, to a concentration experimentally adjusted to the signal/noise ratio obtained with each particular lot of Proteasome-Glo™ reagent, in order to have a good compromise between sensitivity and linear response. […] All assays were performed in white-walled multiwell plates (Thermo Scientific™ Sterilin™ White Microtiter™ plates, Thermo Fisher Scientific, Paisley, UK) in duplicates. The proteasome solution (25 μL) was added to each well first, then the diluted solutions of the assayed compounds (25 μL), and lastly the Proteasome-Glo™ Reagent (50 μL). […] Reagents were added to the plate well on ice, and the plate was then transferred to the plate luminometer (SpectraMax®, Molecular Devices, LLC, San Jose, CA, USA) set at 37 °C, gently mixed for 30 s, and the measurements were immediately started in kinetic mode, with data collected every 5 min for at least 60 min.
All compounds were dissolved in DMSO at a concentration of 10 mM and stored at −20 °C or 4 °C. Solutions of the test compounds were prepared at their adequate dilutions in 10 mM HEPES buffer pH 7.6 before each experiment.
To calculate the proteasome activity over time, the value of mean relative luminescence units (RLU) of blank wells at each respective time point was subtracted, and then the ratio between mean RLU of the sample and mean RLU of the positive control wells was calculated for each time point and expressed as percentage.

Another data set deals with HCT116 cells. As to the kind of experiment: Cell viability, MTT assay, HCT116. It counts as cell-based, human. The following applies: 72 h; for IC50: Homo sapiens, HCT-116, mean ± SD; for percentage of cell viability, MTT, HCT116: at 100 µM. As to the method: (§1) Whenever possible, additional concentrations were tested and IC50 values were determined.
(§2) Human leukemia Jurkat E6.1 T-cell line and K562-cell line were originally obtained from ATCC Collections (Manassas, VA, USA); human HT-29 and HCT116 colorectal carcinoma-cell lines were obtained from ECACC (Porton Down, Porton, UK). Cells were passaged for less than 6 months after and routinely tested for mycoplasma contamination using Mycoalert detection kit (Lonza, Basel, Switzerland). Jurkat, K562, and HT-29 cells were maintained in Roswell Park Memorial Institute (RPMI) 1640 with GlutaMAX™, supplemented with 1% antibiotic mixture (100 µg/mL streptomycin and 100 U/mL penicillin) and 10% heat-inactivated foetal bovine serum (FBS) (all from Gibco, Thermo Fisher Scientific, Paisley, UK). HCT116 cells were maintained in Dulbecco’s Modified Eagle Medium (DMEM) with GlutaMAX™, supplemented with 1% antibiotic mixture (100 µg/mL streptomycin and 100 U/mL penicillin) and 10% heat-inactivated FBS (all from Gibco, Thermo Fisher Scientific, Paisley, UK). Incubation was performed at 37 °C in a 5% CO2 atmosphere. Cells were routinely passaged every 2 or 3 days at 70–90% confluence; TrypLE Express (Gibco, Thermo Fisher Scientific, Paisley, UK) was used as dissociation agent for adherent cells. Trypan blue (Gibco, Thermo Fisher Scientific, Paisley, UK) was used to assess cell viability using the dye exclusion test.
(§3) To assess cell viability, the MTT assay was performed. Jurkat/K562/HT-29/HCT116 cell lines were seeded in triplicate (10,000 cells/well) in 96-well plates with 50 µL of complete medium and incubated at 37 °C, 5% CO2 for 24 h to allow the cells to adhere to the plate (in the case of adherent cells). […] Untreated cells seeded in triplicate were used as control. The blank was performed in triplicate with 100 µL of culture medium. The cells were incubated with the compounds, in triplicate, in 100 µL of total volume, at 37 °C, 5% CO2 for 72 h. […] In suspension cells (Jurkat), 25 µL of MTT were directly added to each well and, after 3 h 30 m of incubation, 100 µL of DMSO were added to solubilize the formazan crystals; in adherent cells (HT-29 and HCT116), the culture medium was removed, 25 µL of MTT were added to each well and, after 3 h 30 m of incubation, upon MTT removal, 100 µL of DMSO were added to solubilize the formazan crystals. After 15 min, the samples absorbance was measured at 570 nm and the percentage of cell viability was determined.
For orientation: Tetrazolium dyes change colour on reduction, which living cells bring about.

Data set [3] can be described thus: Cell viability, MTT assay, HCT116. The following applies: human, HCT116 colorectal carcinoma cells; for viability at 72 h, 10 µM: at 10 µM, read-out: percentage of cell viability, MTT, HCT-116; for viability at 72 h, 100 µM: at 100 µM, read-out: percentage of cell viability, MTT, HCT116. The class given is cell-based, human. As to the method: as §1, §2, §3
Where [4] appears, read: mean ± SD, read-out: IC50, CT-L, isolated human 20S proteasome.

SMILES strings stand for the structures. Where “and” joins values, the source holds several entries; their conditions need not be identical. Identical values can stand only once. Like-named read-outs stand apart in the source and are kept apart here.

As usually defined, the IC50 is the concentration that inhibits the measured activity by half. What is called inhibition is the relative decrease from the control value, in per cent. The viability is a read-out of living cells in per cent, often relative to untreated cells. Take `Cc1ccc2ccccc2c1CSc1ncnc2c1ncn2C1OC(CO)C(O)C1O` (stereo not shown) [Compound 1]: in data set [1], the IC50 worked out at 76.4 µM; the “percentage of proteasome inhibition, CT-L, cell lysates HCT116” value is 90%; the inhibition at 100 µM amounted to 90.2%; the inhibition at 10 µM stood at 0%. Besides, the inhibition at 10 µM in data set [2] (at 10 µM) amounted to 0%. For the same molecule, the “percentage of proteasome inhibition, CT-L, isolated human 20S proteasome” value in data set [2] was 37.72% and 38%. For the same molecule, in the data set on HCT116 cells, half-maximal inhibition (IC50) required 65.7 µM. In data set [3], the viability at 72 h, 10 µM was determined as 95.5% and the viability at 72 h, 100 µM came out at 24%.
For `O=C1c2ccccc2C(=O)c2c(Nc3ccc(S(=O)(=O)N(CCO)CCO)cc3)ccc(O)c21` [Compound 2], in data set [1], it took 50.9 µM to reach half-maximal inhibition (IC50); the “percentage of proteasome inhibition, CT-L, cell lysates HCT116” value was determined as 74%; the inhibition at 100 µM is 74.2%; the inhibition at 10 µM was found to be 6.93%. Moreover, the inhibition at 10 µM in data set [2] (at 10 µM) came out at 81.3%. Besides, the “percentage of proteasome inhibition, CT-L, isolated human 20S proteasome” value in data set [2] was 98%. Further, the IC50 in data set [2] (setting [4]) turned out to be 5.6 µM. Also, the “percentage of cell viability, MTT, HCT116” value (“percentage of cell viability” below) in the data set with HCT116 cells was determined as 89%. Also, in data set [3], the viability at 72 h, 10 µM worked out at 98% and the viability at 72 h, 100 µM came out at 89.1%.
As to `CC(C)c1nc(CN(C)C(=O)N[C@@H](CCN2CCOCC2)C(=O)N[C@H](CC[C@H](Cc2ccccc2)NC(=O)OCc2cncs2)Cc2ccccc2)cs1` [Compound 5, cobicistat, reference compound], in data set [1], the IC50 turned out to be 95.9 µM; the “percentage of proteasome inhibition, CT-L, cell lysates HCT116” value is 67%; the inhibition at 100 µM was 66.9%; the inhibition at 10 µM was determined as 0%. In addition, the inhibition at 10 µM in data set [2] (at 10 µM) is 2.85%. Moreover, in data set [2], the “percentage of proteasome inhibition, CT-L, isolated human 20S proteasome” value is 35.60% and 36%. Also, in the data set on HCT116 cells, the concentration for half-maximal inhibition (IC50) was found to be 58.4 µM and the “percentage of cell viability” value came out at 24%. Moreover, in data set [3], the viability at 72 h, 10 µM was 98.7% and the viability at 72 h, 100 µM stood at 23.7%.
Turning to `Cc1ccc(/C(=N/NS(=O)(=O)c2ccc([N+](=O)[O-])cc2)Sc2cc(Cl)c(C)cc2S(N)(=O)=O)cc1` [Compound 3], in data set [1], the “percentage of proteasome inhibition, CT-L, cell lysates HCT116” value amounted to 33%; the inhibition at 100 µM stood at 33%; the inhibition at 10 µM stood at 0%. In data set [2], it took 49.3 µM to reach half-maximal inhibition (IC50); the “percentage of proteasome inhibition, CT-L, isolated human 20S proteasome” value was 91.40% and 91%; the inhibition at 10 µM amounted to 8.2%. The “percentage of cell viability” value in the data set on HCT116 cells was 95%. Also, in data set [3], the viability at 72 h, 10 µM worked out at 100% and the viability at 72 h, 100 µM came to 95.2%.
In the case of `C#CCCN1CCN(c2ccc(-n3c(=O)ccc4cnc5ccc(-c6ccc(N)nc6)cc5c43)cc2C(F)(F)F)CC1` [Compound 4, 9-(6-Aminopyridin-3-yl)-1-(4-(4-(but-3-yn-1-yl)piperazin-1-yl)-3-(trifluoromethyl)phenyl)benzo[h][1,6]naphthyridin-2(1H)-one], in data set [1], half-maximal inhibition (IC50) required 35.7 µM; the “percentage of proteasome inhibition, CT-L, cell lysates HCT116” value is given as 98%; the inhibition at 100 µM came to 98%; the inhibition at 10 µM was 22.1%. Besides, the inhibition at 10 µM in data set [2] (at 10 µM) was determined as 3.3%. The “percentage of proteasome inhibition, CT-L, isolated human 20S proteasome” value in data set [2] was 69.90% and 70%. The 50% inhibitory concentration (IC50) in data set [2] (setting [4]) amounted to 51.1 µM. In addition, in the data set with HCT116 cells, it took 1.02 µM to reach half-maximal inhibition (IC50). Moreover, in data set [3], the viability at 72 h, 10 µM worked out at 38.4% and the viability at 72 h, 100 µM amounted to 0%.
For the molecule `CC(C)C[C@H](NC(=O)[C@H](Cc1ccccc1)NC(=O)c1cnccn1)B(O)O` [Bortezomib, bortezomib, reference compound], the “percentage of proteasome inhibition, CT-L, cell lysates HCT-116” value in data set [1] (at 10 µM) stood at 97.94%. Also, the “percentage of proteasome inhibition, CT-L, cell lysates HCT116” value in data set [1] was 99.14% and 99%. Moreover, the inhibition at 10 µM in data set [2] (at 10 µM) came out at 91%. In addition, the “percentage of proteasome inhibition, CT-L, isolated human 20S proteasome” value in data set [2] was 99.92% and 100%. For the same molecule, the IC50 in the data set on HCT116 cells is 0.0107 µM. Moreover, in data set [3], the viability at 72 h, 10 µM was 0% and the viability at 72 h, 100 µM came to 0%.

The values are drawn from paper PMC10458307, “New Scaffolds of Proteasome Inhibitors: Boosting Anticancer Potential by Exploiting the Synergy of In Silico and In Vitro Methodologies” (Pharmaceuticals, 2023).
